These are literature values, as cited in patent US20050169991A1, “Sustained release torsemide dosage forms” (Penwest Pharmaceuticals Co., priority 2003, published 2005).

The conditions of this data set: in vivo.

For orientation: half-life means the time needed for the level to fall by half in the phase considered. Turning to `Cc1cccc(Nc2ccncc2S(=O)(=O)NC(=O)NC(C)C)c1` [Torsemide], the half-life was 6 h.
